Measured values taken from patent US20190292189A1, “LIM KINASE INHIBITORS” (VIRONGY, LLC, priority 2016, published 2019).

Experiments:
Test in all cases: Kinase profiling at 1 μM (Reaction Biology)
Type in all cases: biochemical
Conditions in all cases: ATP 10 μM
AMPK(A1/B1/G1) = biological target: T1, AMPK(A1/B1/G1) (Homo sapiens, UniProt Q13131)
T1 construct: purchased Reaction Biology Corporation
Experimental: (§1) Profiling was carried out at Reaction Biology Corporation following a protocol described at its website: http://www.reactionbiology.com/webapps/site/. The % data were the average from two determinations. ATP concentration used: 10 μM; Staurosporine was used as the positive control.
(§2) Biochemical assays for all Limk inhibitors and kinase profiling were carried out in Reaction Biology Corporation and followed the protocols described on its website. […] Compounds were tested at 1 μM with duplicate experiments in profiling assays. […] Reactions were carried out at 10 μM ATP, 1 μM substrate cofilin, and 50 nM Limk1 (final concentrations).

Aurora A = biological target: T2, Aurora A (Homo sapiens, UniProt O14965)
T2 construct: purchased Reaction Biology Corporation
Experimental: as §1, §2

BTK = biological target: T3, BTK (Homo sapiens, UniProt Q06187)
T3 construct: purchased Reaction Biology Corporation
Experimental: as §1, §2

CDK2/cyclin A = biological target: T4, CDK2/cyclin A (Homo sapiens, UniProt P24941)
T4 construct: purchased Reaction Biology Corporation
Experimental: as §1, §2

CDK5/p35 = biological target: T5, CDK5/p35 (Homo sapiens, UniProt Q00535)
T5 construct: purchased Reaction Biology Corporation
Experimental: as §1, §2

CK1d = biological target: T6, CK1d (Homo sapiens, UniProt P48730)
T6 construct: purchased Reaction Biology Corporation
Experimental: as §1, §2

EGFR = biological target: T7, EGFR (Homo sapiens, UniProt P00533)
T7 construct: purchased Reaction Biology Corporation
T7 sequence (P00533 25-1210): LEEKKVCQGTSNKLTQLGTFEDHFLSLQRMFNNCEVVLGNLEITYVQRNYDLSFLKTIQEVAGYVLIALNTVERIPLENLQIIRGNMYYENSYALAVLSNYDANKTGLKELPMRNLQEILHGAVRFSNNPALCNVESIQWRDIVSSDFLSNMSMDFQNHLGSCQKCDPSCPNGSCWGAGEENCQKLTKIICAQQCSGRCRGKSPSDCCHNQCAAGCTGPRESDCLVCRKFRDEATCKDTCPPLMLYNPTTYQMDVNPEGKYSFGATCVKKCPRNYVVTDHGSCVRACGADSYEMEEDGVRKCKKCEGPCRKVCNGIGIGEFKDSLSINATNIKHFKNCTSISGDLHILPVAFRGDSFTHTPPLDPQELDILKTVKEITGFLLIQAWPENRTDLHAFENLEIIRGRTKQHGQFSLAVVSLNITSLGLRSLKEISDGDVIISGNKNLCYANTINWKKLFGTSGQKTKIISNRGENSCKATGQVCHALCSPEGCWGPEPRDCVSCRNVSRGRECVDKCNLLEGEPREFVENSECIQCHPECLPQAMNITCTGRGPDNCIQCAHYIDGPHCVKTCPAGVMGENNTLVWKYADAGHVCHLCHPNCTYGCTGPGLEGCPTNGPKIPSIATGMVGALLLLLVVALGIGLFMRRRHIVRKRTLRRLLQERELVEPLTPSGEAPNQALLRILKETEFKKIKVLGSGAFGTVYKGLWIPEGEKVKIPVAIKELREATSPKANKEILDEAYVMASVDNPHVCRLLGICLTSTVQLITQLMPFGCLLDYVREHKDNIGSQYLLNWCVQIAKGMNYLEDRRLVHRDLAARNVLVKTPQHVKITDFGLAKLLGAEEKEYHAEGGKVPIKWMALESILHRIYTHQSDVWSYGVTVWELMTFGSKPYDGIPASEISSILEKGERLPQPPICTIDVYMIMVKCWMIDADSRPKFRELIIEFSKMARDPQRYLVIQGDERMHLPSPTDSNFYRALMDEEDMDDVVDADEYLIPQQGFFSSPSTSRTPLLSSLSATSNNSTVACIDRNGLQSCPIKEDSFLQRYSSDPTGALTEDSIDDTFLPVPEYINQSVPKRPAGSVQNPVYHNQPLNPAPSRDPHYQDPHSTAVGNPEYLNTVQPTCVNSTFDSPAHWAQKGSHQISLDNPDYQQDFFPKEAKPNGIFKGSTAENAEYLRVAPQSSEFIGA
Experimental: as §1, §2

ERK2/MAPK1 = biological target: T8, ERK2/MAPK1 (Homo sapiens, UniProt P28482)
T8 construct: purchased Reaction Biology Corporation
Experimental: as §1, §2

FAK/PTK2 = biological target: T9, FAK/PTK2 (Homo sapiens, UniProt Q05397)
T9 construct: purchased Reaction Biology Corporation
Experimental: as §1, §2

FGFR1 = biological target: T10, FGFR1 (Homo sapiens, UniProt P11362)
T10 construct: purchased Reaction Biology Corporation
Experimental: as §1, §2

G5K3b = biological target: T11, G5K3b (Homo sapiens, UniProt P49841)
T11 construct: purchased Reaction Biology Corporation
Experimental: as §1, §2

IGFIR = biological target: T12, IGFIR (Homo sapiens, UniProt P08069)
T12 construct: purchased Reaction Biology Corporation
Experimental: as §1, §2

IKKa/CHUK = biological target: T13, IKKa/CHUK (Homo sapiens, UniProt O15111)
T13 construct: purchased Reaction Biology Corporation
Experimental: as §1, §2

JAK3 = biological target: T14, JAK3 (Homo sapiens, UniProt P52333)
T14 construct: purchased Reaction Biology Corporation
Experimental: as §1, §2

JNK1 = biological target: T15, JNK1 (Homo sapiens, UniProt P45983)
T15 construct: purchased Reaction Biology Corporation
T15 sequence (P45983 whole entry): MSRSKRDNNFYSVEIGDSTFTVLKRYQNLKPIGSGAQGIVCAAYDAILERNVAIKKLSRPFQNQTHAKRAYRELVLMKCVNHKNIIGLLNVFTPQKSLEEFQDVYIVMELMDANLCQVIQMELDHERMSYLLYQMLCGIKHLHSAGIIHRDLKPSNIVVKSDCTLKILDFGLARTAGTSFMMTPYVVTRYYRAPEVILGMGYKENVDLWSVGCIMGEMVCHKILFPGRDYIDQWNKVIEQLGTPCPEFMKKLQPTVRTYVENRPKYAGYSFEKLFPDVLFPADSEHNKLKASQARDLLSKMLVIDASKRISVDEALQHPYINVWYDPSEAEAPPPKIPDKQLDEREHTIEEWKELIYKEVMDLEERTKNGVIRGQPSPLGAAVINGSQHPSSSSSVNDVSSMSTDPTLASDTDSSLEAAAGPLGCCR
Experimental: as §1, §2

JNK3 = JNK3 (Homo sapiens, UniProt P53779)
Experimental: as §1, §2

KDR/VEGFR2 = biological target: T16, KDR/VEGFR2 (Homo sapiens, UniProt P35968)
T16 construct: purchased Reaction Biology Corporation
Experimental: as §1, §2

MEK1 = biological target: T17, MEK1 (Homo sapiens, UniProt Q02750)
T17 construct: purchased Reaction Biology Corporation
Experimental: as §1, §2

MLCK/MYLK = biological target: T18, MLCK/MYLK (Homo sapiens, UniProt Q15746)
T18 construct: purchased Reaction Biology Corporation
Experimental: as §1, §2

MRCKa/CDC42BPA = biological target: T19, MRCKa/CDC42BPA (Homo sapiens, UniProt Q5VT25)
T19 construct: purchased Reaction Biology Corporation
Experimental: as §1, §2

P38a/MAPK14 = biological target: T20, P38a/MAPK14 (Homo sapiens, UniProt Q16539)
T20 construct: purchased Reaction Biology Corporation
Experimental: as §1, §2

PAK2 = biological target: T21, PAK2 (Homo sapiens, UniProt Q13177)
T21 construct: purchased Reaction Biology Corporation
Experimental: as §1, §2

PKCa = biological target: T22, PKCa (Homo sapiens, UniProt P17252)
T22 construct: purchased Reaction Biology Corporation
Experimental: as §1, §2

PLK2 = biological target: T23, PLK2 (Homo sapiens, UniProt Q9NYY3)
T23 construct: purchased Reaction Biology Corporation
Experimental: as §1, §2

R5K1 = biological target: T24, R5K1 (Homo sapiens, UniProt Q15418)
T24 construct: purchased Reaction Biology Corporation
T24 sequence (Q15418 whole entry): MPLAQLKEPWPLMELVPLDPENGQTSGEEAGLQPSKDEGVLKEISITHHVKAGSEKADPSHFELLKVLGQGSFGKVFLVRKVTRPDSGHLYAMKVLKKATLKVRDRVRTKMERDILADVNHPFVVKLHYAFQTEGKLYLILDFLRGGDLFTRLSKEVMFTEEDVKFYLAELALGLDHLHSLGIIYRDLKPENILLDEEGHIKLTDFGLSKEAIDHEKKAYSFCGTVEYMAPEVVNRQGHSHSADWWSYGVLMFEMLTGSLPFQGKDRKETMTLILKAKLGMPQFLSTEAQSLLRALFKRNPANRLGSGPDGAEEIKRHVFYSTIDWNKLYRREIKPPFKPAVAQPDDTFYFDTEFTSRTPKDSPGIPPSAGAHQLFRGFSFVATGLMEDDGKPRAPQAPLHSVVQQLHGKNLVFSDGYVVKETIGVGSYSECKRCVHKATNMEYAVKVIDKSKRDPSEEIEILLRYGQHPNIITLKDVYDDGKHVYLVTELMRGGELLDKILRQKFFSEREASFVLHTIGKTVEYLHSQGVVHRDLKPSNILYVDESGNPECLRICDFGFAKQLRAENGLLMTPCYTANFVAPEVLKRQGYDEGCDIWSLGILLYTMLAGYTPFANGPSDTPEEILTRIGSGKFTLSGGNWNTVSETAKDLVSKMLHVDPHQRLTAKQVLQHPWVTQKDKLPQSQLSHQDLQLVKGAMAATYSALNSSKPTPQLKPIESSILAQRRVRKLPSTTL
Experimental: as §1, §2

RET = biological target: T25, RET (Homo sapiens, UniProt P07949)
T25 construct: purchased Reaction Biology Corporation
Experimental: as §1, §2

ROCK1 = biological target: T26, ROCK1 (Homo sapiens, UniProt Q13464)
T26 construct: purchased Reaction Biology Corporation
Experimental: as §1, §2

SGK1 = biological target: T27, SGK1 (Homo sapiens, UniProt O00141)
T27 construct: purchased Reaction Biology Corporation
T27 sequence (O00141 whole entry): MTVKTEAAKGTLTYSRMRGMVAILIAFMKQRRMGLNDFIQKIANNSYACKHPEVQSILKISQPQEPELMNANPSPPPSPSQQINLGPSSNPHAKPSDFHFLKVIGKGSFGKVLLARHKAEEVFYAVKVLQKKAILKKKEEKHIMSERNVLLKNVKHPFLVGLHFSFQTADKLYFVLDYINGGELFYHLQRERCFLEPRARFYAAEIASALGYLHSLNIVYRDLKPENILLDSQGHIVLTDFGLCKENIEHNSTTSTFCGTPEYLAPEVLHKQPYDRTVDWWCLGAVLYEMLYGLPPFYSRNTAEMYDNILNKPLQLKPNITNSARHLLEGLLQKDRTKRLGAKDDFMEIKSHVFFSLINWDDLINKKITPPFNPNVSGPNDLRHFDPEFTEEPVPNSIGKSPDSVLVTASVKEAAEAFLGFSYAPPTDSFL
Experimental: as §1, §2

SLK/STK2 = biological target: T28, SLK/STK2 (Homo sapiens, UniProt Q9H2G2)
T28 construct: purchased Reaction Biology Corporation
Experimental: as §1, §2

STK16 = biological target: T29, STK16 (Homo sapiens, UniProt O75716)
T29 construct: purchased Reaction Biology Corporation
Experimental: as §1, §2

STK33 = biological target: T30, STK33 (Homo sapiens, UniProt Q9BYT3)
T30 construct: purchased Reaction Biology Corporation
T30 sequence (Q9BYT3 whole entry): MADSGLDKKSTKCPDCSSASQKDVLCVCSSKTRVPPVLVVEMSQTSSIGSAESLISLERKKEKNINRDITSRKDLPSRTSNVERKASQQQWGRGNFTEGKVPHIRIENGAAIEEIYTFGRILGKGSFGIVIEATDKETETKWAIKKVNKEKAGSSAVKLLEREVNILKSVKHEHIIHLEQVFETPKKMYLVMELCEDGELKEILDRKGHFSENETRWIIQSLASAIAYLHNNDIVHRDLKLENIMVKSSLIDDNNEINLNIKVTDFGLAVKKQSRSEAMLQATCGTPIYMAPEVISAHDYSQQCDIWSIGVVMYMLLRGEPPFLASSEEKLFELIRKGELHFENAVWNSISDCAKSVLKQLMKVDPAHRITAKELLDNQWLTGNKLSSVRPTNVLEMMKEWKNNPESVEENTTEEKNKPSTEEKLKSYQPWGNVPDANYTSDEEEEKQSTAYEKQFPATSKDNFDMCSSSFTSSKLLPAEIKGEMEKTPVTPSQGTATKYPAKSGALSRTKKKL
Experimental: as §1, §2

TAK1 = biological target: T31, TAK1 (Homo sapiens, UniProt O43318)
T31 construct: purchased Reaction Biology Corporation
Experimental: as §1, §2

TAOK1 = biological target: T32, TAOK1 (Homo sapiens, UniProt Q7L7X3)
T32 construct: purchased Reaction Biology Corporation
Experimental: as §1, §2

TBK1 = biological target: T33, TBK1 (Homo sapiens, UniProt Q9UHD2)
T33 construct: purchased Reaction Biology Corporation
T33 sequence (Q9UHD2 whole entry): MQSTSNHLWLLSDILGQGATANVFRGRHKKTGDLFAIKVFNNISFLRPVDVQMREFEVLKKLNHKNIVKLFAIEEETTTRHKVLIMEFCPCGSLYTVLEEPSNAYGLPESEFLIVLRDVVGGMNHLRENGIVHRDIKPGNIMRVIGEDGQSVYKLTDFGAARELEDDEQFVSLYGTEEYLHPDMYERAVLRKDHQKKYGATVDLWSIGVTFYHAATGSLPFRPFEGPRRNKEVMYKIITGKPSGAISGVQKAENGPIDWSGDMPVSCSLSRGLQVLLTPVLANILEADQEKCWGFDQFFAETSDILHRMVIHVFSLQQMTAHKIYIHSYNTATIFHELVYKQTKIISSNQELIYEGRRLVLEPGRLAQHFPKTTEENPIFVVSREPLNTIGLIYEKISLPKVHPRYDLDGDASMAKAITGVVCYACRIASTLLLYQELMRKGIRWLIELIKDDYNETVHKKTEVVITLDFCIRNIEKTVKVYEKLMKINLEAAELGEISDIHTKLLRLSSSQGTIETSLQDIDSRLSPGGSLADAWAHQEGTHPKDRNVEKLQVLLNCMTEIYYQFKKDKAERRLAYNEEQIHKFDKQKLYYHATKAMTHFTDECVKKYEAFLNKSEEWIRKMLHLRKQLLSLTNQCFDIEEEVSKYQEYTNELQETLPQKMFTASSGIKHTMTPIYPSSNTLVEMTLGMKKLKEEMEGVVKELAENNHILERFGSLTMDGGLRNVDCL
Experimental: as §1, §2

TESK1 = biological target: T34, TESK1 (Homo sapiens, UniProt Q15569)
T34 construct: purchased Reaction Biology Corporation
Experimental: as §1, §2

TLK1 = biological target: T35, TLK1 (Homo sapiens, UniProt Q9UKI8)
T35 construct: purchased Reaction Biology Corporation
T35 sequence (Q9UKI8 whole entry): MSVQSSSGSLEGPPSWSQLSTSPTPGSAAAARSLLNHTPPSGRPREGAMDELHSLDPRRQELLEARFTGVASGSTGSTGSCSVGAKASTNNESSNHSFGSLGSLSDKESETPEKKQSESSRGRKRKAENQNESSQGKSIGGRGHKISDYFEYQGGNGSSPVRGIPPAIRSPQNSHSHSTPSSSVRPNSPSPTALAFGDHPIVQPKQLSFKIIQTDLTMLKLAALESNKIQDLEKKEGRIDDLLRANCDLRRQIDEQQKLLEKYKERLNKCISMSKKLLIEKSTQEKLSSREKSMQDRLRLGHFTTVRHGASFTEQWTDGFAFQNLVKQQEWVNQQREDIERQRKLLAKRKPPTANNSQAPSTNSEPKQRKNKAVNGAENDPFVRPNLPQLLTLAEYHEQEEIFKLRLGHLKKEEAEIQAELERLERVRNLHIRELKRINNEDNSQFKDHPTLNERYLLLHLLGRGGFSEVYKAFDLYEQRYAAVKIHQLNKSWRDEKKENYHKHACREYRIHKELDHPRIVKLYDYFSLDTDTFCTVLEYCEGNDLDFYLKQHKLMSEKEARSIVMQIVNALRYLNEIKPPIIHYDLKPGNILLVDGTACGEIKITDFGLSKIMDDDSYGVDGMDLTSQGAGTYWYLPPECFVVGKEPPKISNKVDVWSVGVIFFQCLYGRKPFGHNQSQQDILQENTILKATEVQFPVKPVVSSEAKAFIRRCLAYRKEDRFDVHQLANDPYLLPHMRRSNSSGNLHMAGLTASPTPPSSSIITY
Experimental: as §1, §2

c-MET = biological target: T36, c-MET (Homo sapiens, UniProt P08581)
T36 construct: purchased Reaction Biology Corporation
Experimental: as §1, §2

mTOR/FRAP1 = biological target: T37, mTOR/FRAP1 (Homo sapiens, UniProt P42345)
T37 construct: purchased Reaction Biology Corporation
Experimental: as §1, §2

COC(=O)c1ccc2[nH]c(C3CCN(c4ncnc5[nH]cc(Cl)c45)CC3)nc2c1 [Compound R10015, Methyl 2-(1-(5-chloro-7H-pyrrolo[2,3-d]pyrimidin-4-yl)piperidin-4-yl)-1Hbenzo[d]imidazole-5-carboxylate]
activity at 1 µM (AMPK(A1/B1/G1)): 76.6%
activity at 1 µM (Aurora A): 60.3%
activity at 1 µM (BTK): 90.2%
activity at 1 µM (CDK2/cyclin A): 82.7%
activity at 1 µM (CDK5/p35): 85.5%
activity at 1 µM (CK1d): 85%
activity at 1 µM (EGFR): 93.2%
activity at 1 µM (ERK2/MAPK1): 87.2%
activity at 1 µM (FAK/PTK2): 81.5%
activity at 1 µM (FGFR1): 86.5%
activity at 1 µM (G5K3b): 67.8%
activity at 1 µM (IGFIR): 90%
activity at 1 µM (IKKa/CHUK): 90.5%
activity at 1 µM (JAK3): 61.1%
activity at 1 µM (JNK1): 95.2%
activity at 1 µM (JNK3): 85.7%
activity at 1 µM (KDR/VEGFR2): 87.2%
activity at 1 µM (MEK1): 75.6%
activity at 1 µM (MLCK/MYLK): 83.3%
activity at 1 µM (MRCKa/CDC42BPA): 96.5%
activity at 1 µM (P38a/MAPK14): 98.6%
activity at 1 µM (PAK2): 98.2%
activity at 1 µM (PKCa): 47.5%
activity at 1 µM (PLK2): 103%
activity at 1 µM (R5K1): 47.2%
activity at 1 µM (RET): 46.5%
activity at 1 µM (ROCK1): 42.3%
activity at 1 µM (SGK1): 61%
activity at 1 µM (SLK/STK2): 108%
activity at 1 µM (STK16): 48.6%
activity at 1 µM (STK33): 56.5%
activity at 1 µM (TAK1): 82.4%
activity at 1 µM (TAOK1): 54%
activity at 1 µM (TBK1): 82%
activity at 1 µM (TESK1): 90.2%
activity at 1 µM (TLK1): 98.5%
activity at 1 µM (c-MET): 82.1%
activity at 1 µM (mTOR/FRAP1): 100%
